According to US8192962B2, “Processes for detecting toxic substances” (Daikin Industries, Ltd., priority 2001, dated 2012):

Tested on: Detoxification protein genes
Experiment: DNA chip mRNA expression in yeast, detoxification protein genes (Table 8)
Type: cell-based, Saccharomyces cerevisiae S288C
In short: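 Ratios compare mRNA levels in stressed and control S. cerevisiae. Each toxicant was applied for two hours to log-phase cultures at 25° C. at a sub-lethal, growth-inhibiting level; fluorescent cDNA (Cy3- or Cy5-dUTP) was hybridized to a genome-wide yeast chip for over 12 h at 65° C.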

CCCCCCCCCCCCOS(=O)(=O)[O-].[Na+] [(18), sodium lauryl sulfate]
The level of expressed mRNA in the presence of chemical substance/The level of expressed mRNA in the absence of chemical substance (yeast gene YBL064C): 2.3 | The level of expressed mRNA in the presence of chemical substance/The level of expressed mRNA in the absence of chemical substance (yeast gene YBR008C): 1.2 | The level of expressed mRNA in the presence of chemical substance/The level of expressed mRNA in the absence of chemical substance (yeast gene YBR145W): 2.0 | The level of expressed mRNA in the presence of chemical substance/The level of expressed mRNA in the absence of chemical substance (yeast gene YBR244W): 1.2 | The level of expressed mRNA in the presence of chemical substance/The level of expressed mRNA in the absence of chemical substance (yeast gene YBR293W): 0.9 | The level of expressed mRNA in the presence of chemical substance/The level of expressed mRNA in the absence of chemical substance (yeast gene YCL035C): 4.2 | The level of expressed mRNA in the presence of chemical substance/The level of expressed mRNA in the absence of chemical substance (yeast gene YCL069W): 1.0 | The level of expressed mRNA in the presence of chemical substance/The level of expressed mRNA in the absence of chemical substance (yeast gene YCR083W): 1.3 | The level of expressed mRNA in the presence of chemical substance/The level of expressed mRNA in the absence of chemical substance (yeast gene YDL100C): 1.4 | The level of expressed mRNA in the presence of chemical substance/The level of expressed mRNA in the absence of chemical substance (yeast gene YDL168W): 0.8 | The level of expressed mRNA in the presence of chemical substance/The level of expressed mRNA in the absence of chemical substance (yeast gene YDR256C): 2.0 | The level of expressed mRNA in the presence of chemical substance/The level of expressed mRNA in the absence of chemical substance (yeast gene YDR453C): 1.5 | The level of expressed mRNA in the presence of chemical substance/The level of expressed mRNA in the absence of chemical substance (yeast gene YDR513W): 3.2 | The level of expressed mRNA in the presence of chemical substance/The level of expressed mRNA in the absence of chemical substance (yeast gene YDR538W): 0.9 | The level of expressed mRNA in the presence of chemical substance/The level of expressed mRNA in the absence of chemical substance (yeast gene YEL027W): 1.4 | The level of expressed mRNA in the presence of chemical substance/The level of expressed mRNA in the absence of chemical substance (yeast gene YEL065W): 0.6 | The level of expressed mRNA in the presence of chemical substance/The level of expressed mRNA in the absence of chemical substance (yeast gene YER185W): 1.1 | The level of expressed mRNA in the presence of chemical substance/The level of expressed mRNA in the absence of chemical substance (yeast gene YFL050C): 1.0 | The level of expressed mRNA in the presence of chemical substance/The level of expressed mRNA in the absence of chemical substance (yeast gene YGL013C): 1.0 | The level of expressed mRNA in the presence of chemical substance/The level of expressed mRNA in the absence of chemical substance (yeast gene YGL254W): 1.2 | The level of expressed mRNA in the presence of chemical substance/The level of expressed mRNA in the absence of chemical substance (yeast gene YGR088W): 2.0 | The level of expressed mRNA in the presence of chemical substance/The level of expressed mRNA in the absence of chemical substance (yeast gene YGR138C): 0.7 | The level of expressed mRNA in the presence of chemical substance/The level of expressed mRNA in the absence of chemical substance (yeast gene YGR197C): 1.9 | The level of expressed mRNA in the presence of chemical substance/The level of expressed mRNA in the absence of chemical substance (yeast gene YGR209C): 2.4 | The level of expressed mRNA in the presence of chemical substance/The level of expressed mRNA in the absence of chemical substance (yeast gene YGR224W): 1.3 | The level of expressed mRNA in the presence of chemical substance/The level of expressed mRNA in the absence of chemical substance (yeast gene YHL040C): 1.0 | The level of expressed mRNA in the presence of chemical substance/The level of expressed mRNA in the absence of chemical substance (yeast gene YHL047C): 1.2 | The level of expressed mRNA in the presence of chemical substance/The level of expressed mRNA in the absence of chemical substance (yeast gene YHR008C): 1.0 | The level of expressed mRNA in the presence of chemical substance/The level of expressed mRNA in the absence of chemical substance (yeast gene YHR048W): 0.9 | The level of expressed mRNA in the presence of chemical substance/The level of expressed mRNA in the absence of chemical substance (yeast gene YHR053C): 0.5 | The level of expressed mRNA in the presence of chemical substance/The level of expressed mRNA in the absence of chemical substance (yeast gene YHR055C): 0.6 | The level of expressed mRNA in the presence of chemical substance/The level of expressed mRNA in the absence of chemical substance (yeast gene YIR002C): 1.2 | The level of expressed mRNA in the presence of chemical substance/The level of expressed mRNA in the absence of chemical substance (yeast gene YIR038C): 2.0 | The level of expressed mRNA in the presence of chemical substance/The level of expressed mRNA in the absence of chemical substance (yeast gene YJL101C): 1.0 | The level of expressed mRNA in the presence of chemical substance/The level of expressed mRNA in the absence of chemical substance (yeast gene YJR104C): 1.1 | The level of expressed mRNA in the presence of chemical substance/The level of expressed mRNA in the absence of chemical substance (yeast gene YKL026C): 3.3 | The level of expressed mRNA in the presence of chemical substance/The level of expressed mRNA in the absence of chemical substance (yeast gene YKL064W): 1.3 | The level of expressed mRNA in the presence of chemical substance/The level of expressed mRNA in the absence of chemical substance (yeast gene YKR066C): 1.1 | The level of expressed mRNA in the presence of chemical substance/The level of expressed mRNA in the absence of chemical substance (yeast gene YKR105C): 1.0 | The level of expressed mRNA in the presence of chemical substance/The level of expressed mRNA in the absence of chemical substance (yeast gene YKR106W): 0.8 | The level of expressed mRNA in the presence of chemical substance/The level of expressed mRNA in the absence of chemical substance (yeast gene YLL028W): 1.2 | The level of expressed mRNA in the presence of chemical substance/The level of expressed mRNA in the absence of chemical substance (yeast gene YLL057C): 1.3 | The level of expressed mRNA in the presence of chemical substance/The level of expressed mRNA in the absence of chemical substance (yeast gene YLL060C): 2.3 | The level of expressed mRNA in the presence of chemical substance/The level of expressed mRNA in the absence of chemical substance (yeast gene YLR043C): 2.2 | The level of expressed mRNA in the presence of chemical substance/The level of expressed mRNA in the absence of chemical substance (yeast gene YLR046C): 5.4 | The level of expressed mRNA in the presence of chemical substance/The level of expressed mRNA in the absence of chemical substance (yeast gene YML028W): 1.5 | The level of expressed mRNA in the presence of chemical substance/The level of expressed mRNA in the absence of chemical substance (yeast gene YML116W): 1.0 | The level of expressed mRNA in the presence of chemical substance/The level of expressed mRNA in the absence of chemical substance (yeast gene YMR015C): 1.0 | The level of expressed mRNA in the presence of chemical substance/The level of expressed mRNA in the absence of chemical substance (yeast gene YMR038C): 1.3 | The level of expressed mRNA in the presence of chemical substance/The level of expressed mRNA in the absence of chemical substance (yeast gene YNL239W): 1.4 | The level of expressed mRNA in the presence of chemical substance/The level of expressed mRNA in the absence of chemical substance (yeast gene YNL241C): 1.0 | The level of expressed mRNA in the presence of chemical substance/The level of expressed mRNA in the absence of chemical substance (yeast gene YNL259C): 2.4 | The level of expressed mRNA in the presence of chemical substance/The level of expressed mRNA in the absence of chemical substance (yeast gene YOL158C): 1.7 | The level of expressed mRNA in the presence of chemical substance/The level of expressed mRNA in the absence of chemical substance (yeast gene YOR031W): 2.4 | The level of expressed mRNA in the presence of chemical substance/The level of expressed mRNA in the absence of chemical substance (yeast gene YOR153W): 3.1 | The level of expressed mRNA in the presence of chemical substance/The level of expressed mRNA in the absence of chemical substance (yeast gene YOR247W): 0.9 | The level of expressed mRNA in the presence of chemical substance/The level of expressed mRNA in the absence of chemical substance (yeast gene YOR251C): 1.3 | The level of expressed mRNA in the presence of chemical substance/The level of expressed mRNA in the absence of chemical substance (yeast gene YOR273C): 3.1 | The level of expressed mRNA in the presence of chemical substance/The level of expressed mRNA in the absence of chemical substance (yeast gene YPL163C): 1.4 | The level of expressed mRNA in the presence of chemical substance/The level of expressed mRNA in the absence of chemical substance (yeast gene YPR200C): 1.0
